# What was measured:
# [1] = target: recombinant human DPPI (Cathepsin C) (Homo sapiens (Human), UniProt P53634); assay: Inhibition of human DPPI (Cathepsin C); format: biochemical; details: substrate Gly-Arg-AMC
# Outline: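 Fluorescence read after 30 min room-temperature turnover of 50 μM (final) substrate by recombinant human cathepsin C, pH 6.0 MES/NaCl/DTT/BSA buffer, quenched by Gly-Phe-DMK (1 μM final). Activity as percent of vehicle after background subtraction, used for IC50.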
# [2] = target: recombinant human Cathepsin K (Homo sapiens (Human), UniProt P43235); assay: Inhibition of human Cathepsin K; format: biochemical; details: substrate Z-Gly-Pro-Arg-AMC
# Outline: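 Fluorogenic Z-Gly-Pro-Arg-AMC cleavage, 60 min at room temperature, after a 10 min enzyme–compound preincubation (enzyme 2 ng/μL; compound 0.1 nM–100 μM; 1% DMSO). Buffer pH 5.5 with sodium acetate, EDTA and L-cysteine; procathepsin first activated 30 min at pH 3.5. E64 (1 μM) stop; IC50 derived from percent of vehicle signal minus background (Ex 360/Em 460 nm).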
# [3] = Determination of metabolic stability with human liver microsomes; details: pooled human liver microsomes; for half-life at 1 μM: human, pH 7.6
# Procedure: Determination of Metabolic Stability with Human Liver Microsomes
# The metabolic degradation of the test compound is assayed at 37° C. with pooled human liver microsomes. The final incubation volume of 100 μl per time point contains TRIS buffer pH 7.6 (0.1 M), magnesium chloride (5 mM), microsomal protein (1 mg/ml) and the test compound at a final concentration of 1 μM. Following a short preincubation period at 37° C., the reactions are initiated by addition of beta-nicotinamide adenine dinucleotide phosphate, reduced form (NADPH, 1 mM) and terminated by transferring an aliquot into acetonitrile after different time points. Additionally, the NADPH-independent degradation is monitored in incubations without NADPH, terminated at the last time point. The [%] remaining test compound after NADPH independent incubation is reflected by the parameter c (control) (metabolic stability). The quenched incubations are pelleted by centrifugation (10,000 g, 5 min). An aliquot of the supernatant is assayed by LC-MS/MS for the amount of parent compound.
# The half-life (t½ INVITRO) is determined by the slope of the semilogarithmic plot of the concentration-time profile.
# recombinant human DPPI (Cathepsin C), sequence (P53634 231-394): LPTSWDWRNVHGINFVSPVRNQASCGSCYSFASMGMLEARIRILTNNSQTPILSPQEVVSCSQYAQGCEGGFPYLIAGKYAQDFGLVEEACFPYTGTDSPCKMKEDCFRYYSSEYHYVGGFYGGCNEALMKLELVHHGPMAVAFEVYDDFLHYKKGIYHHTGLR
# recombinant human DPPI (Cathepsin C), sequence (P53634 395-463): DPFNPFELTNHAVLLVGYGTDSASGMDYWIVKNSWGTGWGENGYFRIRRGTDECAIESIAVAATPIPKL
# recombinant human DPPI (Cathepsin C), sequence (P53634 25-134): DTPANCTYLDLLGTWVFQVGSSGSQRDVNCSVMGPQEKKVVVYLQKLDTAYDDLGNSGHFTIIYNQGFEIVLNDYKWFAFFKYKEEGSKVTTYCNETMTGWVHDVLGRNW
# recombinant human Cathepsin K, sequence (P43235 115-329): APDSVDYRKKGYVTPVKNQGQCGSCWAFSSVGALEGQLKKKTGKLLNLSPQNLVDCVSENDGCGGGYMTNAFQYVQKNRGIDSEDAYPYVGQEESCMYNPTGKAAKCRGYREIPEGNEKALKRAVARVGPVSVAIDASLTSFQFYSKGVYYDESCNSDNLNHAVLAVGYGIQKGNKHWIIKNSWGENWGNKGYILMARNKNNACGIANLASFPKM
Compound,IC50 [1],IC50 [2],half-life at 1 μM [3],"In vitro stability in human liver microsome incubations t½ ([3]; 1 μM test compound, 37° C., NADPH)"
CS(=O)(=O)Nc1cccc(-c2ccc(C[C@@H](C#N)NC(=O)[C@H]3N[C@H]4C[C@@H]3[C@@H]3C[C@@H]34)c(F)c2)c1 [Example 139],11.7 nM,4800 nM,> 2.17 h,–
N#C[C@H](Cc1ccc(-c2cccc(S(N)(=O)=O)c2)cc1F)NC(=O)[C@H]1N[C@H]2C[C@@H]1[C@@H]1C[C@@H]12 [Example 143],6.7 nM,5100 nM,> 2.17 h,–
N#C[C@H](Cc1ccc(-c2ccc3c(c2)CNC3=O)cc1F)NC(=O)[C@H]1N[C@H]2C[C@@H]1[C@@H]1C[C@@H]12 [Example 147],6.2 nM,9700 nM,> 2.17 h,–
CS(=O)(=O)c1cc(-c2ccc(C[C@@H](C#N)NC(=O)[C@H]3N[C@@H]4CC[C@H]3C4)c(F)c2)ccc1F [Example 152],2.1 nM,6100 nM,> 2.17 h,–
N#C[C@H](Cc1ccc(-c2cccc(S(=O)(=O)C3CC3)c2)cc1F)NC(=O)[C@H]1N[C@@H]2CC[C@H]1C2 [Example 153],3.8 nM,4400 nM,1.83 h,–
N#C[C@H](Cc1ccc(N2CCN(CC3CCCO3)CC2)cc1F)NC(=O)[C@H]1N[C@@H]2CC[C@H]1C2 (stereo partly drawn) [Example 154],13.5 nM,4600 nM,> 2.17 h,–
CN1CCN(S(=O)(=O)c2ccc(-c3ccc(C[C@@H](C#N)NC(=O)[C@H]4N[C@@H]5CC[C@H]4C5)c(F)c3)cc2)CC1 [Example 155],0.8 nM,1000 nM,1.03 h,–
CC1(C)OC(=O)c2ccc(-c3ccc(C[C@@H](C#N)NC(=O)[C@H]4N[C@@H]5CC[C@H]4C5)c(F)c3)cc21 [Example 156],0.6 nM,7800 nM,1.58 h,–
N#C[C@H](Cc1ccc(-c2csc(C(N)=O)c2)cc1F)NC(=O)[C@H]1N[C@@H]2CC[C@H]1C2 [Example 157],0.9 nM,7400 nM,> 2.17 h,–
COCCN1C(=O)Cc2ccc(-c3ccc(C[C@@H](C#N)NC(=O)[C@H]4N[C@@H]5CC[C@H]4C5)c(F)c3)cc21 [Example 158],1.5 nM,9400 nM,> 2.17 h,–
CS(=O)(=O)c1ccc(-c2ccc(C[C@@H](C#N)NC(=O)[C@H]3N[C@@H]4CC[C@H]3C4)c(F)c2)cc1C#N [Example 159],1.6 nM,3300 nM,> 2.17 h,–
N#C[C@H](Cc1ccc(-c2ccc(C(N)=O)o2)cc1F)NC(=O)[C@H]1N[C@@H]2CC[C@H]1C2 [Example 167],3.4 nM,6300 nM,> 2.17 h,–
CS(=O)(=O)c1ccc(-c2ccc(C[C@@H](C#N)NC(=O)[C@H]3N[C@@H]4CC[C@H]3C4)c(F)c2F)cc1 [Example 176],6.6 nM,13900 nM,> 2.17 h,–
N#C[C@H](Cc1ccc(-c2ccc3c(c2)NC(=O)C3)c(F)c1F)NC(=O)[C@H]1N[C@@H]2CC[C@H]1C2 [Example 181],8.6 nM,9700 nM,> 2.17 h,–
COCCN1CCN(c2ccc(C[C@@H](C#N)NC(=O)[C@H]3N[C@@H]4CC[C@H]3C4)c(F)c2)CC1 [Example 182],8.8 nM,3500 nM,> 2.17 h,–
CN1CCN(C(=O)c2ccc(-c3ccc(C[C@@H](C#N)NC(=O)[C@H]4N[C@@H]5CC[C@H]4C5)c(F)c3)cc2)CC1 [Example 185],9 nM,1700 nM,> 2.17 h,–
N#C[C@H](Cc1ccc(N2CCN(CCO)CC2)cc1F)NC(=O)[C@H]1N[C@@H]2CC[C@H]1C2 [Example 190],10.9 nM,3700 nM,> 2.17 h,–
N#C[C@H](Cc1ccc(N2CCC(N3CCOCC3)CC2)cc1F)NC(=O)[C@H]1N[C@@H]2CC[C@H]1C2 [Example 193],12.3 nM,2200 nM,> 2.17 h,–
CN1C(=O)C(C)(C)c2ccc(-c3ccc(C[C@@H](C#N)NC(=O)[C@H]4N[C@@H]5CC[C@H]4C5)c(F)c3)cc21 [Example 199],16 nM,11700 nM,1.47 h,–
N#C[C@H](Cc1ccc(-c2ccc(C(=O)NC3CCOCC3)cc2)cc1F)NC(=O)[C@H]1N[C@@H]2CC[C@H]1C2 [Example 200],16.5 nM,3300 nM,> 2.17 h,–
CCN1CCC(c2ccc(C[C@@H](C#N)NC(=O)[C@H]3N[C@@H]4CC[C@H]3C4)c(F)c2)CC1 [Example 201],20.1 nM,2500 nM,> 2.17 h,–
N#C[C@H](Cc1ccc(-c2cnn(CC3CCOCC3)c2)c(F)c1F)NC(=O)[C@H]1N[C@@H]2CC[C@H]1C2 [Example 218],18.9 nM,26000 nM,> 2.17 h,–

Compound,IC50 [1],IC50 [2],half-life at 1 μM [3],"In vitro stability in human liver microsome incubations t½ ([3]; 1 μM test compound, 37° C., NADPH)"
CS(=O)(=NC#N)c1cccc(-c2ccc(C[C@@H](C#N)NC(=O)[C@H]3N[C@@H]4CC[C@H]3C4)c(F)c2)c1 (stereo partly drawn) [Example 222],2.2 nM,1700 nM,> 2.17 h,–
N#C[C@H](Cc1ccc(-c2csc(C(=O)N3CCOCC3)c2)cc1F)NC(=O)[C@H]1N[C@@H]2CC[C@H]1C2 [Example 230],1.8 nM,5900 nM,> 2.17 h,–
CC(=O)N1CCN(C(=O)c2cc(-c3ccc(C[C@@H](C#N)NC(=O)[C@H]4N[C@@H]5CC[C@H]4C5)c(F)c3)cs2)CC1 [Example 231],2.2 nM,2400 nM,> 2.17 h,–
CN1CCN(C(=O)c2cc(-c3ccc(C[C@@H](C#N)NC(=O)[C@H]4N[C@@H]5CC[C@H]4C5)c(F)c3)cs2)CC1=O [Example 233],2.2 nM,3000 nM,> 2.17 h,–
N#C[C@H](Cc1ccc(-c2csc(C(=O)NC3CCOCC3)c2)cc1F)NC(=O)[C@H]1N[C@@H]2CC[C@H]1C2 [Example 235],4.7 nM,3000 nM,> 2.17 h,–
N#C[C@H](Cc1ccc(-c2ccc(C(N)=O)s2)cc1F)NC(=O)[C@H]1N[C@@H]2CC[C@H]1C2 [Example 236],1.6 nM,1700 nM,> 2.17 h,–
N#C[C@H](Cc1ccc(-c2ccc(C(=O)N3CCN4CCOCC4C3)o2)cc1F)NC(=O)[C@H]1N[C@@H]2CC[C@H]1C2 (stereo partly drawn) [Example 238],14.3 nM,9300 nM,1.83 h,–
N#C[C@H](Cc1ccc(-c2cc(C(N)=O)co2)cc1F)NC(=O)[C@H]1N[C@@H]2CC[C@H]1C2 [Example 239],3.4 nM,2000 nM,> 2.17 h,–
N#C[C@H](Cc1ccc(-c2cc(C(=O)N3CCn4nccc4C3)co2)cc1F)NC(=O)[C@H]1N[C@@H]2CC[C@H]1C2 [Example 240],6.1 nM,9400 nM,1.83 h,–
CN1CCN(C(=O)c2coc(-c3ccc(C[C@@H](C#N)NC(=O)[C@H]4N[C@@H]5CC[C@H]4C5)c(F)c3)c2)CC1 [Example 241],6.8 nM,2500 nM,1.4 h,–
CCNC(=O)c1coc(-c2ccc(C[C@@H](C#N)NC(=O)[C@H]3N[C@@H]4CC[C@H]3C4)c(F)c2)c1 [Example 242],10.9 nM,2500 nM,> 2.17 h,–
N#C[C@H](Cc1ccc(-c2cccc(C(N)=O)c2)cc1F)NC(=O)[C@H]1N[C@@H]2CC[C@H]1C2 [Example 244],3.7 nM,2000 nM,1.53 h,–
CN1CCN(C(=O)c2cccc(-c3ccc(C[C@@H](C#N)NC(=O)[C@H]4N[C@@H]5CC[C@H]4C5)c(F)c3)c2)CC1 [Example 245],5.9 nM,1200 nM,> 2.17 h,–
CN1CCCN(c2ccc(C[C@@H](C#N)NC(=O)[C@H]3N[C@@H]4CC[C@H]3C4)c(F)c2)CC1 [Example 247],8.4 nM,4500 nM,> 2.17 h,–
N#C[C@H](Cc1ccc(N2CCN3CCOC[C@@H]3C2)cc1F)NC(=O)[C@H]1N[C@@H]2CC[C@H]1C2 [Example 249],6.3 nM,3600 nM,> 2.17 h,–
N#C[C@H](Cc1ccc(N2CCN3CCOC[C@H]3C2)cc1F)NC(=O)[C@H]1N[C@@H]2CC[C@H]1C2 [Example 250],4.2 nM,3100 nM,> 2.17 h,–
CS(=O)(=O)c1ccc(-c2ccc(C[C@@H](C#N)NC(=O)[C@H]3N[C@@H]4CC[C@H]3C4)c(F)c2)cc1OCC(F)F [Example 252],3.8 nM,3300 nM,–,2.17 h
CNc1nc2cc(-c3ccc(C[C@@H](C#N)NC(=O)[C@H]4N[C@@H]5CC[C@H]4C5)c(F)c3)ccc2n1C [Example 253],11 nM,5700 nM,> 2.17 h,–
Cn1cc(-c2ccc(C[C@@H](C#N)NC(=O)[C@H]3N[C@@H]4CC[C@H]3C4)c(F)c2)ccc1=O [Example 254],2 nM,4500 nM,> 2.17 h,–
CS(C)(=O)=Nc1cccc(-c2ccc(C[C@@H](C#N)NC(=O)[C@H]3N[C@@H]4CC[C@H]3C4)c(F)c2)c1 [Example 259],6 nM,3700 nM,> 2.17 h,–
N#C[C@H](Cc1ccc(-c2cnn(C[C@H]3CCCO3)c2)cc1F)NC(=O)[C@H]1N[C@@H]2CC[C@H]1C2 [Example 260],3.5 nM,3900 nM,> 2.17 h,–
N#C[C@H](Cc1ccc(-c2cnn(C[C@@H]3CCCO3)c2)cc1F)NC(=O)[C@H]1N[C@@H]2CC[C@H]1C2 [Example 261],4.2 nM,3800 nM,> 2.17 h,–

# Source: patent US8987249B2, “Substituted 2-Aza-bicyclo[2.2.1]heptane-3-carboxylic acid (benzyl-cyano-methyl)-amides inhibitors of Cathepsin C” (Boehringer Ingelheim International GmbH, priority 2013, dated 2015)
